According to ChEMBL document CHEMBL5550155, “Discovery of meisoindigo derivatives as noncovalent and orally available Mpro inhibitors: their therapeutic implications in the treatment of COVID-19” (Eur J Med Chem, 2024):
Activity calls are given as the source filed them. The rule behind the calls is not given here.

Tests used:
[1] = target: Replicase polyprotein 1ab (Severe acute respiratory syndrome coronavirus 2) (UniProt P0DTD1); assay: Inhibition of recombinant SARS-CoV-2 main protease expressed in Escherichia coli BL21 DE3 expression cells using MCA-AVLQSGFR-Lys(Dnp)-Lys-NH2 as substrate at 10 uM incubated for 10 to 15 mins followed by substrate addition by FRET assay relative to control; details: time 10-15 min
[2] = target: T1, Replicase polyprotein 1ab (Severe acute respiratory syndrome coronavirus 2, UniProt P0DTD1); assay: Inhibition of recombinant SARS-CoV-2 main protease expressed in Escherichia coli BL21 DE3 expression cells using MCA-AVLQSGFR-Lys(Dnp)-Lys-NH2 as substrate incubated for 10 to 15 mins followed by substrate addition by FRET assay
[3] = system: SARS-CoV-2; assay: Antiviral activity against wild type SARS-CoV-2 infected in human HeLa cells expressing ACE2 assessed as reduction in viral spike protein level preincubated with cells for 2 hrs followed by viral infection for 1 hr and measured after 24 hrs by RT-qPCR analysis; format: functional, organism-based; details: Severe acute respiratory syndrome coronavirus 2, HeLa
[4] = system: SARS-CoV-2; assay: Antiviral activity against wild type SARS-CoV-2 infected in human Calu-3 cells assessed as reduction in viral spike protein level at 10 uM preincubated with cells for 2 hrs followed by viral infection for 1 hr and measured after 24 hrs by Western blot analysis; format: functional, organism-based; details: Severe acute respiratory syndrome coronavirus 2, time 27.0 hrs
[5] = system: SARS-CoV-2; assay: Antiviral activity against wild type SARS-CoV-2 infected in human Calu-3 assessed as reduction in viral spike protein level at 10 uM preincubated with cells for 2 hrs followed by viral infection for 1 hr and measured after 24 hrs by RT-qPCR analysis; format: functional, organism-based; details: Severe acute respiratory syndrome coronavirus 2, time 27.0 hrs
[6] = system: SARS-CoV-2; assay: Antiviral activity against wild type SARS-CoV-2 infected in human Calu-3 assessed as reduction in nucleocapsid protein level at 10 uM preincubated with cells for 2 hrs followed by viral infection for 1 hr and measured after 24 hrs by Western blot analysis; format: functional, organism-based; details: Severe acute respiratory syndrome coronavirus 2, time 27.0 hrs
[7] = system: SARS-CoV-2; assay: Antiviral activity against wild type SARS-CoV-2 infected in human Calu-3 cells assessed as reduction in nucleocapsid protein mRNA level at 10 uM preincubated with cells for 2 hrs followed by viral infection for 1 hr and measured after 24 hrs by RT-qPCR analysis; format: functional, organism-based; details: Severe acute respiratory syndrome coronavirus 2, time 27.0 hrs
[8] = target: T1, Replicase polyprotein 1ab; assay: Non-covalent inhibition of SARS-CoV-2 main protease incubated for 50 mins followed by substrate addition by FRET assay
[9] = Stability of compound in stimulated gastric fluid assessed as parent compound remaining measured upto 24 hrs by HPLC analysis; format: ADME; details: simulated gastric fluid, read-out: Stability
[10] = n-Octanol/water partition coefficient, logP of the compound incubated for 12 hrs by HPLC analysis; format: physicochemical
[11] = system: SARS-CoV-2; assay: Antiviral activity against wild type SARS-CoV-2 infected in human HeLa cells expressing ACE2 assessed as reduction in viral spike protein level at 10 uM preincubated with cells for 2 hrs followed by viral infection for 1 hr and measured after 24 hrs by Western blot analysis; format: functional, organism-based; details: Severe acute respiratory syndrome coronavirus 2, time 27.0 hrs
[12] = target: T1, Replicase polyprotein 1ab; assay: Non-covalent inhibition of SARS-CoV-2 main protease incubated for 30 mins followed by substrate addition by FRET assay
[13] = target: T1, Replicase polyprotein 1ab; assay: Binding affinity to recombinant SARS-CoV-2 main protease expressed in Escherichia coli BL21 DE3 expression cells assessed as dissociation constant measured for 60 secs by SPR analysis
[14] = system: SARS-CoV-2; assay: Antiviral activity against SARS-CoV-2 infected in African green monkey Vero E6 cells assessed as reduction in viral plaque number pre-infected with virus followed by cell addition for 1 hr and measured after 24 hrs by plaque assay; format: functional, organism-based; details: Severe acute respiratory syndrome coronavirus 2
[15] = Solubility of the compound in water incubated for 24 hrs by HPLC analysis; format: physicochemical
[16] = system: SARS-CoV-2; assay: Antiviral activity against wild type SARS-CoV-2 infected in human HeLa cells expressing ACE2 assessed as reduction in nucleocapsid protein mRNA level preincubated with cells for 2 hrs followed by viral infection for 1 hr and measured after 24 hrs by RT-qPCR analysis; format: functional, organism-based; details: Severe acute respiratory syndrome coronavirus 2, HeLa
[17] = system: SARS-CoV-2; assay: Antiviral activity against SARS-CoV-2 infected in African green monkey Vero E6 cells assessed as reduction in viral plaque size pre-infected with virus followed by cell addition for 1 hr and measured after 24 hrs by plaque assay; format: functional, organism-based; details: Severe acute respiratory syndrome coronavirus 2
[18] = Metabolic stability in mouse liver microsomes assessed as half life at 10 mg/ml preincubated for 5 mins followed by NADPH addition and measured upto 120 mins by HPLC analysis; format: ADME, Microsome; details: time < 125 min
[19] = Metabolic stability in mouse liver microsomes assessed as parent compound remaining at 10 mg/ml measured after 120 mins by HPLC analysis; format: ADME, Microsome; details: read-out: Stability
[20] = system: SARS-CoV-2; assay: Antiviral activity against wild type SARS-CoV-2 infected in human HeLa cells expressing ACE2 assessed as reduction in nucleocapsid protein level at 10 uM preincubated with cells for 2 hrs followed by viral infection for 1 hr and measured after 24 hrs by Western blot analysis; format: functional, organism-based; details: Severe acute respiratory syndrome coronavirus 2, time 27.0 hrs
[21] = Stability of compound in stimulated intestinal fluid assessed as parent compound remaining measured upto 24 hrs by HPLC analysis; format: ADME; details: simulated intestinal fluid, read-out: Stability
[22] = Metabolic stability in mouse liver microsomes assessed as intrinsic clearance at 10 mg/ml preincubated for 5 mins followed by NADPH addition and measured upto 120 mins by HPLC analysis; format: ADME, Microsome; details: time < 125 min, read-out: CLH
[23] = target: T1, Replicase polyprotein 1ab; assay: Non-covalent inhibition of SARS-CoV-2 main protease incubated for 10 mins followed by substrate addition by FRET assay

Work on `CN1C(=O)/C(=C2/C(=O)Nc3ccccc32)c2ccccc21` [MEISOINDIGO] yielded an inhibition [1] of 50.6% and an IC50 [2] of 15600 nM.
`O=C1Nc2ccccc2/C1=C1\C(=O)N(CCN2CCOCC2)c2ccccc21` showed an inhibition [1] of 83.9%.
Work on `CN1C(=O)/C(=C2/C(=O)N(CCNC(=O)OC(C)(C)C)c3ccccc32)c2ccccc21` yielded an inhibition [1] of 52.6%.
Work on `CC(C)(C)[C@H](NC(=O)C(F)(F)F)C(=O)N1C[C@H]2[C@@H]([C@H]1C(=O)N[C@H](C#N)C[C@@H]1CCNC1=O)C2(C)C` yielded an EC50 [3] of 16900 nM.
With `O=C1Nc2ccccc2/C1=C1\C(=O)Nc2ccccc21` [ISOINDIGO] the inhibition [1] was 85.3% and the IC50 [2] was 1200 nM.
`COc1ccc2c(c1)/C(=C1\C(=O)Nc3ccccc31)C(=O)N2C` gave an inhibition [1] of 91.4%.
In the case of `COc1ccc2c(c1)/C(=C1\C(=O)Nc3ccccc31)C(=O)N2CCCCCCCC(=O)O`, the inhibition [1] is reported as 89.1% and the IC50 [2] is reported as 1610 nM.
Molecule `O=C(O)CCCCCCCCCN1C(=O)/C(=C2/C(=O)Nc3ccccc32)c2ccccc21` has an inhibition [1] of 71.2%.
For `O=C1Nc2ccccc2/C1=C1\C(=O)N(CCBr)c2ccccc21`, the inhibition [1] was 97.4%.
For `CN1C(=O)/C(=C2/C(=O)Nc3ccccc32)c2cc(Cl)ccc21`, the inhibition [1] was 40.8%.
`CN1C(=O)C2(CC=CCC23C(=O)Nc2ccccc23)c2ccccc21` (stereo not given) gave an inhibition [1] of 11.9%.
Molecule `O=C(O)CCCCCCCN1C(=O)/C(=C2/C(=O)Nc3ccccc32)c2cc(O)ccc21` has an inhibition [1] of 63.7%.
With `COc1ccc2c(c1)C1(CC=CCC13C(=O)Nc1ccccc13)C(=O)N2C` (stereo not given) the inhibition [1] was 4.1%.
For `O=C(O)CCCCCCCCCN1C(=O)/C(=C2/C(=O)Nc3ccccc32)c2cc(Br)ccc21`, the inhibition [1] was 76.8%.
In the case of `O=C(O)CCCCCCCN1C(=O)/C(=C2/C(=O)Nc3ccccc32)c2cc(Br)ccc21`, the Activity [4] is reported as “Active”, the inhibition [1] is reported as 97.8% and the IC50 [2] is reported as 1210 nM. The Activity [5] was “Active”, the Activity [6] was “Active” and the Activity [7] was “Active”.
`O=C(O)CCCCCCCN1C(=O)/C(=C2/C(=O)Nc3ccccc32)c2ccccc21` showed an inhibition [1] of 73.8%.
With `CCOC(=O)CCCCCCCN1C(=O)/C(=C2/C(=O)Nc3ccccc32)c2cc(Br)ccc21` the inhibition [1] was 25.2%.
Work on `CN1C(=O)/C(=C2/C(=O)N(C)c3ccccc32)c2ccccc21` yielded an inhibition [1] of 25.7%.
In the case of `CN1C(=O)/C(=C2/C(=O)Nc3ccccc32)c2cc(O)ccc21`, the Activity [4] is reported as “Active”, the inhibition [1] is reported as 84.2% and the Activity [5] is reported as “Active”. The Activity [7] was “Active”.
With `O=C(O)CCCCCCCCCCCN1C(=O)/C(=C2/C(=O)Nc3ccccc32)c2ccccc21` the inhibition [1] was 72.9%.
`COc1ccc2c(c1)/C(=C1\C(=O)N(C)c3ccccc31)C(=O)N2` showed an inhibition [1] of 70.7%.
Molecule `CN1C(=O)/C(=C2/C(=O)Nc3ccc(Br)cc32)c2ccccc21` has an inhibition [1] of 94.5%.
In the case of `CN1C(=O)/C(=C2/C(=O)Nc3ccccc32)c2cc([N+](=O)[O-])ccc21`, the inhibition [1] is reported as 32.8% and the Activity [6] is reported as “Active”.
For `CCOC(=O)CCCCCCCCCN1C(=O)/C(=C2/C(=O)Nc3ccccc32)c2cc(Br)ccc21`, the inhibition [1] was 21.2%.
In the case of `CN1CCN(CCN2C(=O)/C(=C3/C(=O)Nc4ccccc43)c3ccccc32)CC1`, the inhibition [1] is reported as 91.3%.
For `CN1C(=O)/C(=C2/C(=O)N(CCCN)c3ccc(Br)cc32)c2ccccc21.Cl`, the IC50 [8] was 1340 nM, the remaining at 24 h [9] was 95.3% and the logP at 12 h [10] was 0.29. The Activity [11] was “Active”, the EC50 [3] was 2740 nM and the IC50 [12] was 1150 nM. For the same molecule, the Kd [13] was 16800 nM, the Activity [14] was “Active” and the inhibition [1] was 90.5%. For the same molecule, the IC50 [2] was 1350 nM, the solubility at 24 h [15] was 2490 µg/mL and the EC50 [16] was 2660 nM. For the same molecule, the Activity [17] was “Active”, the half-life [18] was 8.25 h and the remaining at 2 h [19] was 84%. For the same molecule, the Activity [20] was “Active”, the remaining at 24 h [21] was 73.6% and the microsomal CLint [22] was 1.4 µL/min/mg. For the same molecule, the IC50 [23] was 1300 nM.
`CN1C(=O)/C(=C2/C(=O)Nc3ccccc32)c2cc(Br)ccc21` showed an inhibition [1] of 32.4%.
`O=C(O)CCCCCN1C(=O)/C(=C2/C(=O)Nc3ccccc32)c2ccccc21` gave an inhibition [1] of 59.8%.
With `CN1C(=O)C2(CC=CCC23C(=O)Nc2ccc(Br)cc23)c2ccccc21` (stereo not given) the inhibition [1] was 6%.
With `CN1C(=O)/C(=C2/C(=O)N(CCN3CCCC3)c3ccccc32)c2ccccc21.Cl` the remaining at 24 h [9] was 95.2%, the logP at 12 h [10] was 0.7 and the Activity [11] was “inactive”. It also gave a Kd [13] of 700 nM, an inhibition [1] of 86.5% and an IC50 [2] of 1150 nM. For the same molecule, the solubility at 24 h [15] was 17300 µg/mL, the Activity [20] was “inactive” and the remaining at 24 h [21] was 85.3%.
Work on `CN1C(=O)/C(=C2/C(=O)N(CCN)c3ccccc32)c2cc(Br)ccc21.Cl` yielded an IC50 [8] of 1490 nM, a remaining at 24 h [9] of 95% and a logP at 12 h [10] of 0.59. For the same molecule, the Activity [11] was “Active”, the EC50 [3] was 1760 nM and the IC50 [12] was 1520 nM. For the same molecule, the Kd [13] was 1270 nM, the Activity [14] was “Active” and the inhibition [1] was 85.8%. For the same molecule, the IC50 [2] was 1090 nM, the solubility at 24 h [15] was 3810 µg/mL and the EC50 [16] was 2030 nM. For the same molecule, the Activity [17] was “Active”, the Activity [20] was “Active” and the remaining at 24 h [21] was 78%. The IC50 [23] was 1960 nM.
`CN1C(=O)/C(=C2/C(=O)Nc3ccccc32)c2cc(F)ccc21` showed an inhibition [1] of 82.5%.
